Results from US6254899A, “Plant extract compositions, method of preparation, and pharmaceutical compositions containing them” (Laboratoires Remilea, priority 1999, dated 2001).

Columns and labels:
[1] = Test of analgesic activity: phenyl benzoquinone (PBQ) induced abdominal cramps in mice; type: in vivo, mice (male); conditions: aspirin 100 mg/kg
Protocol: 50 male mice of 20-24 g supplied by the company IFFA-CREDO (France) were divided into 5 batches. The products studied were administered: by oral route thirty minutes before injection of phenyl benzoquinone (PBQ): (PBQ 20 mg+alcohol 5 ml+water qsp 100 ml). by intraperitoneal route at the rate of 0.20 ml per mouse.
The products to be tested were suspended in the excipient HPMC (hydroxypropyl cellulose methyl).
The animals were treated as below: […]
4. Tanacetum parthenium 150 10 […]
Aspirin was used as the reference analgesic product.
PBQ induces abdominal cramps indicating the intensity of the pain. The number of cramps per mouse was measured 1 hr and 2 hrs after administration of the product tested (30 mn and 1 hr 30 minutes after injection of PBQ).
The results were expressed as the percentage: […]
Number of cramps of the control batch - number of cramps of
Number of cramps of the control batch

[2] = Test of anti-inflammatory activity: carragheenin-induced podal edema in rats; type: in vivo, rat (Ico male and female, Sprague Dawley)
Protocol: 1. Test of Anti-inflammatory Activity
Podal edema induced by carragheenin is used to evaulate the anti-inflammatory activity of the products tested.
The products were tested on Ico male rats and female rats (Sprague Dawley) of approximately 250 g provided by the company IFFA-CREDO.
The products tested were suspended in the hydroxypropyl methyl cellulose (HPMC).
A volume of 5 ml per kg of body weight was administered to the animals by oral route according to the protocol detained in the table below.
Batch Salix Tanacetum Copper Quantity Volume
no. alba parthenium gluconate of excipient administered
Batch / 900 mg / 15.0 ml) 5 ml/kg
The control animals received either the placebo (T+), i.e. solely the HPMC, or indomethacin (T-) by oral route.
The treatment took place two hours before the experiment. One hour after oral administration of the product to be tested, all the animals received 0.2 ml of a 2% solution of carragheenin (Satia) in a 0.9% solution of sodium chloride at by injection in the right back paw (T0).
The podal volume of each rat was measured using a plethysmometer. The podal edema of each animal was measured at times T0, T0 +60 minutes, T0 +120 minutes, T0 +240 minutes.
The results were expressed in average percentages of inflammation relative to the control values (T^+) before the treatment and at each of the measuring times as well as in the percentage reduction of the edema compared to a control before the treatment and against each of the measuring times.

Row | Compound | Reduction of number of abdominal cramps, 1 hr ([1]; 60 mins after administration, Salix alba 150 mg/kg) | Reduction of number of abdominal cramps, 2 hrs ([1]; 120 mins after administration, Salix alba or Tanacetum parthenium 150 mg/kg) | % change of inflammation compared with the control (T+), 1 hour ([2]; 1 hour, "-" reduction, "+" increase in inflammation) | % change of inflammation compared with the control (T+), 2 hours ([2]; 2 hours, "-" reduction, "+" increase in inflammation) | % change of inflammation compared with the control (T+), 4 hours ([2]; 4 hours, "-" reduction, "+" increase in inflammation) | % inflammation after 1 hour ([2]; oral, 5 ml/kg, 1 hour) | % inflammation after 2 hours ([2]; oral, 5 ml/kg, 2 hours) | % inflammation after 4 hours ([2]; oral, 5 ml/kg, 4 hours)
1 | CC(=O)Oc1ccccc1C(=O)O [aspirin] | 33% | 55% | – | – | – | – | – | –
2 | COc1ccc2c(c1)c(CC(=O)O)c(C)n2C(=O)c1ccc(Cl)cc1 [Indomethacin] | – | – | -16.74% | -36.7% | -50.38% | 38.34% | 51.85% | 71.38%
